Data taken from patent US20210170033A1, “NOVEL CONJUGATES OF A PHARMACEUTICAL AGENT AND A MOIETY CAPABLE OF BINDING TO A GLUCOSE SENSING PROTEIN” (SANOFI, priority 2017, published 2021).

Tested on: A2780 cells
Assay: Deoxy-glucose uptake assay in A2780 cells (14C 2-deoxy-D-glucose transport)
Type: cell-based
Settings: Homo sapiens, 20 min; inhibition of 14C 2-deoxy-D-glucose transport into A2780 cells; 20 min compound incubation; read-out: IC50
Description: 1. Deoxy-Glucose Uptake Assay in A2780 Cells:
For measurement of ^14C 2-deoxy-D-glucose transport into A2780 cells, cells were seeded in 96-well plates (Cytostar-T Plates Perkin Elmer, 70,000 cells/180 μl/well) in medium complete (RPMI1640+Glutamax (Life technologies #61870)) and grown for 48 hours. After 48 h, cells were washed once with 180 μL KRB (Krebs Ringer Bicarbonate) buffer, and stimulated in a dose dependent manner by adding 10 μL of test compound dilution 0-1.1 mM (11 times higher concentration than final) or 10 μL of 1.1 mM Cytochalasin B solution as negative control, to 90 μL KRB buffer and incubated for 20 minutes. After compound stimulation, the transport of ^14C 2-deoxy-D-glucose was started by adding of 50 μL 2-^14C[U] 2-deoxy-D-glucose solution (109.1 μM 2-deoxy-D-glucose cold and 33 μM 2-^14C[U] 2-deoxy-D-glucose 0.1 μCi/well) for 20 minutes. Transport was stopped by adding 50 μL/well 96 μM Cytochalasin B solution. Plates were measured in a 96-well Wallac Microbeta device. The cpm (counts per minute) values were used to determine the % inhibition values for the test compounds within each experiment. In a first step, the mean background value generated by Cytochalasin B (a potent glucose transporter inhibitor) treated cells, was subtracted from the mean values of the treated cells. All mean values were obtained from triplicates. For %-Inhibition results, the mean value of the untreated cells (just KRB) was set as 100%. All other mean values were calculated to this relation. IC50 were obtained by regression analysis of dose response curve with 7 or 14 concentrations, respectively, for each compound.

SMILES | IC50
C#CCCCn1c(COc2c(Cl)cc(C(=O)O[C@@H]3[C@@H](O)[C@@H](OC)O[C@H](CO)[C@H]3O)c(C)c2Cl)nc2ccccc21 [Example 275] | 0.1 µM
CO[C@H]1O[C@H](CO)[C@@H](O)[C@H](O)[C@H]1OC(=O)c1cc(Cl)c(OCc2cccc(CNC(=O)[C@H](CC(C)C)NC(=O)OC(C)(C)C)c2)c(Cl)c1C [Example 278] | 1.6 µM
CO[C@H]1O[C@H](CO)[C@@H](O)[C@H](O)[C@H]1OC(=O)c1cc(Cl)c(OCc2cccc(CNC(=O)[C@H](CC(C)C)N(C)C(=O)OC(C)(C)C)c2)c(Cl)c1C [Example 279] | 3.4 µM
C#CCCCn1c(COc2c(Cl)cc(C(=O)N[C@H]3[C@@H](OC)O[C@H](CO)[C@@H](O)[C@@H]3O)c(C)c2Cl)cc2ccccc21 [Example 280] | 5.9 µM
CCOC(=O)c1nnsc1COc1c(Cl)cc(C(=O)O[C@H]2[C@@H](OC)O[C@H](CO)[C@@H](O)[C@@H]2O)c(C)c1Cl [Example 282] | 0.3 µM
COC(=O)c1ccc(COc2c(Cl)cc(C(=O)N[C@H]3[C@@H](OC)O[C@H](CO)[C@@H](O)[C@@H]3O)c(C)c2Cl)nc1 [Example 284] | 14.2 µM
CO[C@H]1O[C@H](CO)[C@@H](O)[C@H](O)[C@H]1OC(=O)c1cc(Cl)c(OCc2cccc(CNC(=O)[C@@H](N)CC(C)C)c2)c(Cl)c1C [Example 285] | 23.2 µM
CN[C@@H](CC(C)C)C(=O)NCc1cccc(COc2c(Cl)cc(C(=O)O[C@H]3[C@@H](OC)O[C@H](CO)[C@@H](O)[C@@H]3O)c(C)c2Cl)c1 [Example 286] | 4.8 µM
CO[C@H]1O[C@H](CO)[C@@H](O)[C@H](O)[C@H]1NC(=O)c1cc(Cl)c(OCc2ccc(C(=O)OC(C)(C)C)cc2)c(Cl)c1C [Example 296] | 7.6 µM
CO[C@H]1O[C@H](CO)[C@@H](O)[C@H](O)[C@H]1NC(=O)c1cc(Cl)c(OCc2nc3ccccc3n2CCCCCC(=O)OC(C)(C)C)c(Cl)c1C [Example 301] | 0.1 µM
COC(=O)CCCCCNC(=O)c1cccc(COc2c(Cl)cc(C(=O)N[C@H]3[C@@H](OC)O[C@H](CO)[C@@H](O)[C@@H]3O)c(C)c2Cl)c1 [Example 323] | 28 µM
COc1c(C(=O)N[C@H]2[C@H](OC)O[C@H](CO)[C@@H](O)[C@@H]2O)cc(Cl)c(OCc2ccccc2)c1Cl [Example 332] | 31.3 µM
COc1cc(C(=O)N[C@H]2[C@H](OC)O[C@H](CO)[C@@H](O)[C@@H]2O)cc(Cl)c1OCCc1ccccc1 [Example 333] | 29.1 µM
CO[C@@H]1O[C@H](CO)[C@@H](O)[C@H](O)[C@H]1NC(=O)c1cc(Cl)cc(OCc2ccccc2)c1 [Example 334] | 30.6 µM
CO[C@@H]1O[C@H](CO)[C@@H](O)[C@H](O)[C@H]1NC(=O)c1cc(Cl)c(OCc2ccccc2)c(Cl)c1 [Example 338] | 32.2 µM
CO[C@H]1O[C@H](CO)[C@@H](O)[C@H](O)[C@H]1OC(=O)c1cc(Cl)c(OCc2cccc(CNCCCC(=O)OC(C)(C)C)c2)c(Cl)c1C [Example 348] | 31 µM

SMILES | IC50
COc1cc(OCc2ccccc2)c(Cl)cc1C(=O)O[C@@H]1[C@@H](O)[C@@H](OC)O[C@H](CO)[C@H]1O [Example 350] | 18 µM
COc1cc(OCc2ccccc2)ccc1C(=O)N[C@H]1[C@@H](OC)O[C@H](CO)[C@@H](O)[C@@H]1O [Example 358] | 91.4 µM
COc1cc(OCc2cccc(NC(=O)OC(C)(C)C)c2)c(Cl)cc1C(=O)N[C@H]1[C@@H](OC)O[C@H](CO)[C@@H](O)[C@@H]1O [Example 359] | 0.4 µM
C#CCCCCCCCn1c(COc2c(Cl)cc(C(=O)N[C@H]3[C@@H](OC)O[C@H](CO)[C@@H](O)[C@@H]3O)c(C)c2Cl)nc2ccccc21 [Example 368] | 1.1 µM
COC(=O)[C@H](CCC(=O)NCc1cccc(COc2cc(OC)c(C(=O)O[C@H]3[C@@H](OC)O[C@H](CO)[C@@H](O)[C@@H]3O)cc2Cl)c1)NC(=O)OC(C)(C)C [Example 369] | 11.2 µM
COC(=O)[C@@H](N)CCCCNC(=O)CCCCCn1c(COc2c(Cl)cc(C(=O)N[C@H]3[C@@H](OC)O[C@H](CO)[C@@H](O)[C@@H]3O)c(C)c2Cl)nc2ccccc21 [Example 384] | 44.2 µM
COc1cc(OCc2ccc(OCC(=O)OC(C)(C)C)cc2)c(Cl)cc1C(=O)N[C@H]1[C@@H](OC)O[C@H](CO)[C@@H](O)[C@@H]1O [Example 387] | 2.6 µM
COc1cc(OCc2cccc(CNC(=O)CCC(=O)NCCCCCC(=O)OC(C)(C)C)c2)c(Cl)cc1C(=O)O[C@H]1[C@@H](OC)O[C@H](CO)[C@@H](O)[C@@H]1O [Example 390] | 7.1 µM
COC(=O)[C@H](CCCCNC(=O)CCCC(=O)NCc1cccc(COc2cc(OC)c(C(=O)O[C@H]3[C@@H](OC)O[C@H](CO)[C@@H](O)[C@@H]3O)cc2Cl)c1)NC(=O)OC(C)(C)C [Example 391] | 34.3 µM
COc1cc(OCc2cccc(OCCCCCC(=O)OC(C)(C)C)c2)c(Cl)cc1C(=O)N[C@H]1[C@@H](OC)O[C@H](CO)[C@@H](O)[C@@H]1O [Example 394] | 4 µM
COC(=O)c1cccn2cc(COc3cc(OC)c(C(=O)N[C@H]4[C@@H](OC)O[C@H](CO)[C@@H](O)[C@@H]4O)cc3Cl)nc12 [Example 396] | 17.3 µM
COc1cc(OCc2cccc(OCCCCCC(=O)O)c2)c(Cl)cc1C(=O)N[C@H]1[C@@H](OC)O[C@H](CO)[C@@H](O)[C@@H]1O [Example 398] | 85.9 µM
COc1cc(OCc2cccc(NC(=O)COCCOCC(=O)O)c2)c(Cl)cc1C(=O)O[C@H]1[C@@H](OC)O[C@H](CO)[C@@H](O)[C@@H]1O [Example 400] | 47.1 µM
COc1cc(OCc2cccc(CNC(=O)CCC(=O)NCCCCCC(=O)O)c2)c(Cl)cc1C(=O)O[C@H]1[C@@H](OC)O[C@H](CO)[C@@H](O)[C@@H]1O [Example 405] | 60.5 µM
COC(=O)[C@H](CCCCNC(=O)CCCCCNC(=O)CCC(=O)NCc1cccc(COc2cc(OC)c(C(=O)O[C@H]3[C@@H](OC)O[C@H](CO)[C@@H](O)[C@@H]3O)cc2Cl)c1)NC(=O)OC(C)(C)C [Example 411] | 25.9 µM

Continued by falling IC50, values first:

IC50 | SMILES
52.9 µM | COC(=O)[C@H](CCCCNC(=O)CNc1cc(COc2c(Cl)cc(C(=O)N[C@H]3[C@@H](OC)O[C@H](CO)[C@@H](O)[C@@H]3O)c(C)c2Cl)cnc1OC)NC(=O)OC(C)(C)C [Example 388]
45.8 µM | COC(=O)/C=C/c1ccc(COc2c(Cl)cc(C(=O)O[C@H]3[C@@H](OC)O[C@H](CO)[C@@H](O)[C@@H]3O)cc2OC)cc1 [Example 299]
45 µM | COc1cc(OCc2cccc(CNC(=O)CCCCCCC(=O)O)c2)c(Cl)cc1C(=O)O[C@H]1[C@@H](OC)O[C@H](CO)[C@@H](O)[C@@H]1O [Example 408]
36.4 µM | CO[C@@H]1O[C@H](CO)[C@@H](O)[C@H](O)[C@H]1NC(=O)c1cc(Cl)c(OCc2ccccc2)c(Cl)c1C [Example 337]
27.4 µM | COc1cc(OCc2cccc(CNC(=O)CCC(=O)OC(C)(C)C)c2)c(Cl)cc1C(=O)O[C@@H]1[C@@H](O)[C@@H](OC)O[C@H](CO)[C@H]1O [Example 363]
27.2 µM | COc1c(C(=O)O[C@H]2[C@@H](OC)O[C@H](CO)[C@@H](O)[C@@H]2O)ccc(OCc2ccccc2)c1Cl [Example 298]
24 µM | CO[C@H]1O[C@H](CO)[C@@H](O)[C@H](O)[C@H]1NC(=O)c1cc(Cl)c(OCc2cccc(OCC(=O)OC(C)(C)C)c2)c(Cl)c1C [Example 307]
22.3 µM | COC(=O)[C@H](CCCCNC(=O)CCC(=O)NCc1cccc(COc2cc(OC)c(C(=O)O[C@H]3[C@@H](OC)O[C@H](CO)[C@@H](O)[C@@H]3O)cc2Cl)c1)NC(=O)OC(C)(C)C [Example 385]
20.2 µM | COC(=O)[C@H](CCCCNC(=O)COCCOCC(=O)NCc1cccc(COc2cc(OC)c(C(=O)O[C@H]3[C@@H](OC)O[C@H](CO)[C@@H](O)[C@@H]3O)cc2Cl)c1)NC(=O)OC(C)(C)C [Example 399]
14.7 µM | COC(=O)/C=C/c1ccc(COc2c(Cl)cc(C(=O)O[C@H]3[C@@H](OC)O[C@H](CO)[C@@H](O)[C@@H]3O)c(C)c2Cl)cc1 [Example 317]
14.4 µM | COc1cc(C(=O)O[C@H]2[C@@H](OC)O[C@H](CO)[C@@H](O)[C@@H]2O)cc(Cl)c1OCc1cccc(OCC(=O)OC(C)(C)C)c1 [Example 276]
6.9 µM | CO[C@H]1O[C@H](CO)[C@@H](O)[C@H](O)[C@H]1OC(=O)c1cc(Cl)c(OCc2ccccc2)cc1C [Example 300]
6.7 µM | CCOC(=O)c1nnsc1COc1c(Cl)cc(C(=O)N[C@H]2[C@@H](OC)O[C@H](CO)[C@@H](O)[C@@H]2O)c(C)c1Cl [Example 283]
2.2 µM | CO[C@H]1O[C@H](CO)[C@@H](O)[C@H](O)[C@H]1NC(=O)c1cc(Cl)c(OCc2ccccc2)cc1C [Example 297]
1.5 µM | COc1cc(OCc2ccc(OCC(=O)OC(C)(C)C)cc2)c(Cl)cc1C(=O)O[C@H]1[C@@H](OC)O[C@H](CO)[C@@H](O)[C@@H]1O [Example 395]
0.9 µM | COc1cc(OCc2cccc(CNC(=O)OC(C)(C)C)c2)c(Cl)cc1C(=O)N[C@H]1[C@@H](OC)O[C@H](CO)[C@@H](O)[C@@H]1O [Example 357]
0.2 µM | COc1ncc(COc2c(Cl)cc(C(=O)N[C@H]3[C@@H](OC)O[C@H](CO)[C@@H](O)[C@@H]3O)c(C)c2Cl)cc1NCC(=O)OC(C)(C)C [Example 303]
